The values that follow are results of earlier work, collected in patent US20070003613A1, “Preparations to support maintenance of acid-alkaline balance in the human body and methods directed to using same” (priority 2005, published 2007).

Structures are written as SMILES.

The conditions of this data set: second dissociation.

Regarding `NCC(=O)O` [glycine], the “pH at which the second H+ ion is liberated” value is 9.6.
